From patent US20200055883A1, “CYCLIC DI-NUCLEOTIDES DERIVATIVE FOR THE TREATMENT OF CANCER” (Eisai R&D Management Co., Ltd., priority 2017, published 2020) come the findings set out here.

Where two headings read alike, the source gives them in different places.

One test has as its target Human STING HAQ (Homo sapiens, UniProt Q86WV6, G230A/H232R/R293Q/R71H). Kind of test: HAQ STING agonist activity reporter assay (THP1-Dual cells).
A further test concerns the target WT Human STING (Homo sapiens, UniProt Q86WV6, H232R). The test can be described thus: STING variant specific reporter assay, WT-STING (THP1-Dual KO-STING cells). As to conditions: Human STING EC50 (μM) WT, ammonium salt form of each compound. Background: A reporter such as luciferase makes a cellular process visible.
The target of another test is REF Human STING (Homo sapiens, UniProt Q86WV6). Kind of test: STING variant specific reporter assay, REF-STING (THP1-Dual KO-STING cells).
Chain of REF Human STING (Q86WV6 whole entry): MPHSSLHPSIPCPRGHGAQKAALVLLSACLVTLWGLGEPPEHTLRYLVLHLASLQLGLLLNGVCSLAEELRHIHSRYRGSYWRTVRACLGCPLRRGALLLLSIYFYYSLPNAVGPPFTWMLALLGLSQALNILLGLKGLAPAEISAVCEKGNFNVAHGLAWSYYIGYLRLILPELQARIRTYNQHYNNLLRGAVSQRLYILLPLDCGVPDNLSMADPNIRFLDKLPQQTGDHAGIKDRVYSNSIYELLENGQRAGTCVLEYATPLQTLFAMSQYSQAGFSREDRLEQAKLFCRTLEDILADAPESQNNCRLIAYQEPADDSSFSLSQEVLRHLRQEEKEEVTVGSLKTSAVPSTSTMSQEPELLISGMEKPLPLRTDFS
The next test has as its target AQ Human STING (Homo sapiens, UniProt Q86WV6, G230A/H232R/R293Q). The test can be described thus: STING variant specific reporter assay, AQ-STING (THP1-Dual KO-STING cells). As to conditions: ammonium salt form of each compound.
Setting [1] is: Human STING EC50 (μM) HAQ, Table 5, ammonium salt form of each compound, 20 hrs.
The mark [2] stands for this setting: Human STING EC50 (μM) AQ, Table 5.
[3] abbreviates: hSTING EC50 (μM) HAQ, Table 6, ammonium salt form, except Compounds 26, 33, 34 tested as bis-TEA salts.
The mark [4] stands for this setting: Human STING EC50 (μM) HAQ, Table 4, ammonium salt form of each compound, 20 hrs.
Where [5] appears, read: Human STING EC50 (μM) AQ, Table 4.
[6] abbreviates: hSTING EC50 (μM) HAQ, Table 8, ammonium salt form of each compound.

Chain of AQ Human STING (Q86WV6 whole entry G230A/H232R/R293Q): as the sequence (Q86WV6 whole entry) above, with G230A, H232R, R293Q counted along it
Chain of WT Human STING (Q86WV6 whole entry H232R): as the sequence (Q86WV6 whole entry) above, with H232R counted along it
Chain of Human STING HAQ (Q86WV6 whole entry R71H/G230A/H232R/R293Q): as the sequence (Q86WV6 whole entry) above, with R71H, G230A, H232R, R293Q counted along it

In the case of `O=P1(S)OC[C@H]2O[C@@H]3[C@H](F)[C@@H]2OP(=O)(S)OC[C@H]2OC([C@H](F)[C@@H]2O1)n1cnc2c(ncnc21)NCC/C=C/CNc1ncnc2c1ncn23` (single isomer, unassigned) [Compound 8], the EC50 (commonly the concentration at which the effect is half-maximal) at Human STING HAQ (setting [1]) is 69.7 µM; at WT Human STING (Table 5) it was 68.7 µM; on REF Human STING it was above 100 µM; on AQ Human STING (setting [2]) it was 81 µM. As to `O=P1(S)OC[C@H]2O[C@@H]3[C@H](F)[C@@H]2OP(=O)(S)OC[C@H]2OC([C@H](F)[C@@H]2O1)n1cnc2c(ncnc21)NCC/C=C/CNc1ncnc2c1ncn23` (single isomer, unassigned) [Compound 11], on Human STING HAQ (setting [1]), the EC50 is 6.8 µM. Consider `O=P1(S)OC[C@H]2O[C@@H]3[C@H](F)[C@@H]2OP(=O)(S)OC[C@H]2OC([C@H](F)[C@@H]2O1)n1cnc2c(ncnc21)NCC/C=C/CNc1ncnc2c1ncn23` (single isomer, unassigned) [Compound 12], for which the EC50 at Human STING HAQ (setting [1]) was found to be 8.2 µM. On to `O=P1(S)OC[C@H]2O[C@@H]3[C@H](F)[C@@H]2OP(=O)(S)OC[C@H]2O[C@H]([C@H](F)[C@@H]2O1)n1cnc2c(ncnc21)NC/C=C/COc1ncnc2c1ncn23` (single isomer, unassigned) [Compound 18], for which, on Human STING HAQ (setting [3]), the half-maximal effective concentration (EC50) turned out to be 2.3 µM. For the molecule `O=P1(S)OC[C@H]2O[C@@H]3[C@H](F)[C@@H]2OP(=O)(S)OC[C@H]2O[C@H]([C@H](F)[C@@H]2O1)n1cnc2c(ncnc21)NC/C=C/COc1ncnc2c1ncn23` (single isomer, unassigned) [Compound 19], the EC50 at Human STING HAQ (setting [3]) turned out to be 94.1 µM.

In the case of `O=P1(S)OC[C@H]2O[C@@H]3[C@H](F)[C@@H]2OP(=O)(S)OC[C@H]2O[C@H]([C@H](F)[C@@H]2O1)n1cnc2c(ncnc21)NC/C=C/COc1ncnc2c1ncn23` (single isomer, unassigned) [Compound 20], the concentration for a half-maximal effect (EC50) at Human STING HAQ (setting [3]) was 2.8 µM.

`Nc1nc2c3ncn(c3n1)[C@@H]1O[C@@H]3COP(O)(=S)O[C@H]4[C@@H](F)[C@@H](O[C@@H]4COP(O)(=S)O[C@H]3[C@H]1F)n1cnc3c(ncnc31)NC/C=C/CO2` (single isomer, unassigned) [Compound 21] yielded an EC50 at Human STING HAQ (hSTING EC50 (μM) HAQ) of 83.3 µM. Still for that read-out and setting: with `Nc1nc2c3ncn(c3n1)[C@@H]1O[C@@H]3COP(O)(=S)O[C@H]4[C@@H](F)[C@@H](O[C@@H]4COP(O)(=S)O[C@H]3[C@H]1F)n1cnc3c(ncnc31)NC/C=C/CO2` (single isomer, unassigned) [Compound 22] the figure was 41.2 µM. On to `O=[P@]1(S)OC[C@H]2OC3[C@H](F)[C@@H]2O[P@](=O)(S)OC[C@H]2O[C@H]([C@H](F)[C@@H]2O1)n1cnc2c(ncnc21)NCC1NC1CNc1ncnc2c1ncn23` (single isomer, unassigned) [Compound 35], for which the EC50 on Human STING HAQ (setting [3]) turned out to be 44.5 µM. Consider `O=[P@]1(S)OC[C@H]2OC3[C@H](F)[C@@H]2O[P@](=O)(S)OC[C@H]2O[C@H]([C@H](F)[C@@H]2O1)n1cnc2c(ncnc21)NCC1NC1CNc1ncnc2c1ncn23` (single isomer, unassigned) [Compound 36], for which, on Human STING HAQ (setting [3]), the EC50 is 31.4 µM.

Regarding `O=P1(S)OC[C@H]2O[C@@H]3[C@H](F)[C@@H]2OP(=O)(S)OC[C@H]2OC([C@H](F)[C@@H]2O1)n1cnc2c(ncnc21)NCC/C=C/CNc1ncnc2c1ncn23` (single isomer, unassigned) [Compound 37], the EC50 was 87.2 µM at Human STING HAQ (setting [1]), above 100 µM at WT Human STING (Table 5) and 82.2 µM on AQ Human STING (setting [2]). Consider `O=[P@]1(S)OC[C@H]2OC3[C@H](F)[C@@H]2O[P@](=O)(S)OC[C@H]2O[C@H]([C@H](F)[C@@H]2O1)n1cnc2c(ncnc21)NCCCCNc1ncnc2c1ncn23` [Compound 6], for which the EC50 at Human STING HAQ (setting [1]) worked out at 10.5 µM; on WT Human STING (Table 5), 5.7 µM; at REF Human STING it was 42 µM; at AQ Human STING (setting [2]), 9 µM. As for `O=P1(O)OC[C@H]2O[C@@H]3[C@H](F)[C@@H]2OP(=O)(O)OC[C@H]2OC([C@H](F)[C@@H]2O1)n1cnc2c(ncnc21)NC/C=C/CNc1ncnc2c1ncn23` [Compound 9], the EC50 on Human STING HAQ (setting [1]) amounted to 39.2 µM; on WT Human STING (Table 5), 18 µM; on REF Human STING, 31.7 µM; at AQ Human STING (setting [2]), 30.9 µM.

On to `O=[P@]1(S)OC[C@H]2OC3[C@H](O)[C@@H]2O[P@](=O)(S)OC[C@H]2O[C@H]([C@H](O1)[C@@H]2O)n1cnc2c(ncnc21)NC/C=C/CNc1ncnc2c1ncn23` [Compound 13], for which, at Human STING HAQ (setting [4]), the EC50 is 26.7 µM. `O=[P@@]1(S)OC[C@H]2OC3[C@H](O)[C@@H]2O[P@](=O)(S)OC[C@H]2O[C@H]([C@H](O1)[C@@H]2O)n1cnc2c(ncnc21)NC/C=C/CNc1ncnc2c1ncn23` [Compound 14]: the EC50 at Human STING HAQ (setting [4]) was 58.2 µM; at WT Human STING (Table 4), 69.8 µM; on REF Human STING (read-out: Human STING EC50 (μM) REF, Table 4, ammonium salt form of each compound), above 100 µM; on AQ Human STING (read-out: Human STING EC50 (μM) AQ, Table 4), above 100 µM. For `O=[P@]1(S)OC[C@H]2OC3[C@H](F)[C@@H]2O[P@](=O)(S)OC[C@H]2O[C@H]([C@H](O1)[C@@H]2O)n1cnc2c(ncnc21)NC/C=C/CNc1ncnc2c1ncn23` [Compound 15], the EC50 at Human STING HAQ (setting [4]) was found to be 24.7 µM; at WT Human STING (Table 4) it was 11.6 µM; on REF Human STING it was 66.7 µM; at AQ Human STING (setting [5]), 13.1 µM. For `O=[P@@]1(S)OC[C@H]2OC3[C@H](F)[C@@H]2O[P@](=O)(S)OC[C@H]2O[C@H]([C@H](O1)[C@@H]2O)n1cnc2c(ncnc21)NC/C=C/CNc1ncnc2c1ncn23` [Compound 16], in that order: 28.8 µM, 25.7 µM, 66.7 µM and 20.4 µM.

As for `Nc1nc2c3ncn(c3n1)[C@@H]1O[C@@H]3COP(O)(=S)O[C@H]4[C@@H](F)[C@@H](O[C@@H]4COP(O)(=S)O[C@H]3[C@H]1F)n1cnc3c(ncnc31)NC/C=C/CO2` (stereo partly shown) [Compound 23], the midpoint of the response at Human STING HAQ (hSTING EC50 (μM) HAQ), the EC50, lay at 62.3 µM.

As to `O=[P@@]1(S)OC[C@H]2O[C@@H]3[C@H](F)[C@@H]2O[P@](=O)(S)OC[C@H]2OC([C@H](F)[C@@H]2O1)n1cnc2c(ncnc21)OC/C=C/COc1ncnc2c1ncn23` [Compound 26], at Human STING HAQ (setting [3]), the EC50 was 2.3 µM. `O=P1(O)OC[C@H]2OC3[C@H](F)[C@@H]2O[P@@](O)(=S)OC[C@H]2O[C@H]([C@H](F)[C@@H]2O1)n1cnc2c(ncnc21)NC/C=C/CNc1ncnc2c1ncn23` [Compound 27] returned an EC50 on Human STING HAQ (hSTING EC50 (μM) HAQ) of 9.8 µM. Same read-out and setting: the result for `O=P1(O)OC[C@H]2OC3[C@H](F)[C@@H]2O[P@](O)(=S)OC[C@H]2O[C@H]([C@H](F)[C@@H]2O1)n1cnc2c(ncnc21)NC/C=C/CNc1ncnc2c1ncn23` [Compound 28] reads 10.2 µM. With `O=[P@]1(S)OC[C@H]2OC3[C@H](F)[C@@H]2O[P@](=O)(S)OC[C@H]2O[C@H]([C@H](F)[C@@H]2O1)n1cnc2c(ncnc21)NCC#CCNc1ncnc2c1ncn23` [Compound 29], the EC50 on Human STING HAQ (setting [3]) came out at 0.62 µM. Regarding `O=P1(S)OC[C@H]2OC3[C@H](OP(=O)(S)OC[C@H]4O[C@H]([C@H](O1)[C@@H]4O)n1cnc4c(ncnc41)NC/C=C/CNc1ncnc4c1ncn43)[C@@H]2O` (stereo partly shown) [Compound 31], the concentration for a half-maximal effect (EC50) on Human STING HAQ (hSTING EC50 (μM) HAQ, Table 7, ammonium salt form of each compound) stood at 20.2 µM. As for `O=[P@]1(S)OC[C@H]2OC3[C@H](F)[C@@H]2O[P@](=O)(S)OC[C@H]2O[C@H]([C@H](F)[C@@H]2O1)n1cnc2c(ncnc21)NC[C@H](O)[C@@H](O)CNc1ncnc2c1ncn23` [Compound 32], the EC50 on Human STING HAQ (setting [3]) is 15.7 µM; at REF Human STING (read-out: hSTING EC50 (μM) REF, Table 6, ammonium salt form, except Compounds 26, 33, 34 tested as bis-TEA salts) it was above 100 µM.

Take `O=[P@]1(S)OC[C@H]2OC3[C@H](F)[C@@H]2O[P@](=O)(S)OC[C@H]2O[C@H]([C@H](F)[C@@H]2O1)n1cnc2c(ncnc21)CC/C=C/CCc1ncnc2c1ncn23` [Compound 33]: at Human STING HAQ (setting [3]), the EC50 was determined as 21.5 µM. As to `O=[P@@]1(S)OC[C@H]2O[C@@H]3[C@H](F)[C@@H]2O[P@](=O)(S)OC[C@H]2OC([C@H](F)[C@@H]2O1)n1cnc2c(ncnc21)CC/C=C/CCc1ncnc2c1ncn23` [Compound 34], at Human STING HAQ (setting [3]), the EC50 was 2.3 µM. For `O=[P@]1(S)N[C@@H]2[C@H]3CO[P@](=O)(S)N[C@H]4[C@@H](O)[C@@H](O[C@@H]4CO1)n1cnc4c(ncnc41)NC/C=C/CNc1ncnc4c1ncn4C(O3)[C@@H]2O` [Compound 38], the EC50 at Human STING HAQ (setting [6]) turned out to be 79.9 µM. On to `O=P1(S)N[C@@H]2[C@H]3COP(=O)(S)N[C@H]4[C@@H](O)[C@@H](O[C@@H]4CO1)n1cnc4c(ncnc41)NC/C=C/CNc1ncnc4c1ncn4C(O3)[C@@H]2O` (stereo partly shown) [Compound 39], for which the EC50 at Human STING HAQ (setting [6]) amounted to 29.6 µM.
